Assay results published in ChEMBL document CHEMBL3885881, “DrugMatrix”.

Species on record: Rattus norvegicus
Assay: DrugMatrix - Regimen: Daily Repeat
Assay type: toxicity, organism-based, Sprague-Dawley
Set-up: regimen Daily Repeat, gender Male, age 6-8 weeks
Settings: in vivo, po, route oral GAVAGE, […]; for ABSOLUTE BASOPHIL / ABSOLUTE EOSINOPHIL / ABSOLUTE LYMPHOCYTE / ABSOLUTE SEGMENTED NEUTROPHIL / BASOPHIL / EOSINOPHIL / ERYTHROCYTE COUNT / HEMATOCRIT / HEMOGLOBIN / LEUKOCYTE COUNT / LYMPHOCYTE / MEAN CORPUSCULAR HEMOGLOBIN / MEAN CORPUSCULAR HEMOGLOBIN CONCENTRATION / MEAN CORPUSCULAR VOLUME / MONOCYTE / NEUTROPHIL / NUCLEATED RED BLOOD CELLS / PLATELET COUNT: tissue Blood; for ALANINE AMINOTRANSFERASE / ALBUMIN / ALKALINE PHOSPHATASE / ASPARTATE AMINOTRANSFERASE / BLOOD UREA NITROGEN / CARBON DIOXIDE / CHLORIDE / CHOLESTEROL / CREATINE PHOSPHOKINASE / CREATININE / GLUCOSE / LACTATE DEHYDROGENASE / LIPASE / PHOSPHORUS / POTASSIUM / SODIUM / TOTAL BILIRUBIN / TOTAL PROTEIN / URIC ACID: tissue Plasma
[1] = 0 mg/kg, 72 h, dose level Control, time 3 day
[2] = 0 mg/kg, 120 h, dose level Control, time 5 day
[3] = 15 mg/kg, 72 h, dose level Low, time 3 day

## CCC(C)(C)C(=O)O[C@H]1C[C@@H](C)C=C2C=C[C@H](C)[C@H](CC[C@@H]3C[C@@H](O)CC(=O)O3)[C@H]21 [SIMVASTATIN]
[1]
  ABSOLUTE BASOPHIL: 0 CELLS/uL
  ABSOLUTE EOSINOPHIL: 14 CELLS/uL
  ABSOLUTE LYMPHOCYTE: 11144.67 CELLS/uL
  ABSOLUTE SEGMENTED NEUTROPHIL: 535.5 CELLS/uL
  BASOPHIL: 0%
  EOSINOPHIL: 0.17%
  ERYTHROCYTE COUNT: 5.08 x10E6/uL
  HEMATOCRIT: 32.32%
  HEMOGLOBIN: 12.87 G/DL
  LEUKOCYTE COUNT: 11.72 x10E3/uL
  LYMPHOCYTE: 94.67%
  MEAN CORPUSCULAR HEMOGLOBIN: 25.37 pg
  MEAN CORPUSCULAR HEMOGLOBIN CONCENTRATION: 39.85 G/DL
  MEAN CORPUSCULAR VOLUME: 63.58 fL
  MONOCYTE: 0.17%
  NEUTROPHIL: 5%
  NUCLEATED RED BLOOD CELLS: 0 /100WBC
  PLATELET COUNT: 1084 x10E3/uL
  ALANINE AMINOTRANSFERASE: 67.5 u/L
  ALBUMIN: 4.02 G/DL
  ALKALINE PHOSPHATASE: 374.17 u/L
  ASPARTATE AMINOTRANSFERASE: 83.5 u/L
  BLOOD UREA NITROGEN: 14.5 mg/dL
  CARBON DIOXIDE: 30 mmol/L
  CHLORIDE: 100.5 MEQ/L
  CHOLESTEROL: 71.33 mg/dL
  CREATINE PHOSPHOKINASE: 268.33 u/L
  CREATININE: 0.16 mg/dL
  GLUCOSE: 170.5 mg/dL
  LACTATE DEHYDROGENASE: 81.17 u/L
  LIPASE: 16.67 u/L
  PHOSPHORUS: 10.07 mg/dL
  POTASSIUM: 5.03 MEQ/L
  SODIUM: 142.92 MEQ/L
  TOTAL BILIRUBIN: 0.17 mg/dL
  TOTAL PROTEIN: 5.63 G/DL
  URIC ACID: 0.5 mg/dL
[2]
  ABSOLUTE BASOPHIL: 0 CELLS/uL
  ABSOLUTE EOSINOPHIL: 37.5 CELLS/uL
  ABSOLUTE LYMPHOCYTE: 8049.5 CELLS/uL
  ABSOLUTE SEGMENTED NEUTROPHIL: 646.83 CELLS/uL
  BASOPHIL: 0%
  EOSINOPHIL: 0.5%
  ERYTHROCYTE COUNT: 5.36 x10E6/uL
  HEMATOCRIT: 33.9%
  HEMOGLOBIN: 13.02 G/DL
  LEUKOCYTE COUNT: 8.82 x10E3/uL
  LYMPHOCYTE: 90.17%
  MEAN CORPUSCULAR HEMOGLOBIN: 24.32 pg
  MEAN CORPUSCULAR HEMOGLOBIN CONCENTRATION: 38.42 G/DL
  MEAN CORPUSCULAR VOLUME: 63.32 fL
  MONOCYTE: 1.17%
  NEUTROPHIL: 8.17%
  NUCLEATED RED BLOOD CELLS: 0.17 /100WBC
  PLATELET COUNT: 1231.5 x10E3/uL
  ALANINE AMINOTRANSFERASE: 62 u/L
  ALBUMIN: 3.97 G/DL
  ALKALINE PHOSPHATASE: 303.67 u/L
  ASPARTATE AMINOTRANSFERASE: 84.5 u/L
  BLOOD UREA NITROGEN: 14.83 mg/dL
  CARBON DIOXIDE: 31.83 mmol/L
  CHLORIDE: 97 MEQ/L
  CHOLESTEROL: 68.83 mg/dL
  CREATINE PHOSPHOKINASE: 411.33 u/L
  CREATININE: 0.16 mg/dL
  GLUCOSE: 170.17 mg/dL
  LACTATE DEHYDROGENASE: 88.5 u/L
  LIPASE: 9.5 u/L
  PHOSPHORUS: 9.98 mg/dL
  POTASSIUM: 5.72 MEQ/L
  SODIUM: 141.62 MEQ/L
  TOTAL BILIRUBIN: 0.1 mg/dL
  TOTAL PROTEIN: 5.67 G/DL
  URIC ACID: 0.52 mg/dL
[3]
  ABSOLUTE BASOPHIL: 0 CELLS/uL
  ABSOLUTE EOSINOPHIL: 0 CELLS/uL
  ABSOLUTE LYMPHOCYTE: 9235.67 CELLS/uL
  ABSOLUTE SEGMENTED NEUTROPHIL: 962.33 CELLS/uL
  BASOPHIL: 0%
  EOSINOPHIL: 0%
  ERYTHROCYTE COUNT: 5.23 x10E6/uL
  HEMATOCRIT: 32.6%
  HEMOGLOBIN: 12.9 G/DL
  LEUKOCYTE COUNT: 10.33 x10E3/uL
  LYMPHOCYTE: 89.33%
  MEAN CORPUSCULAR HEMOGLOBIN: 24.7 pg
  MEAN CORPUSCULAR HEMOGLOBIN CONCENTRATION: 39.57 G/DL
  MEAN CORPUSCULAR VOLUME: 62.4 fL
  MONOCYTE: 1.33%
  NEUTROPHIL: 9.33%
  NUCLEATED RED BLOOD CELLS: 0 /100WBC
  PLATELET COUNT: 1186.33 x10E3/uL
  ALANINE AMINOTRANSFERASE: 75 u/L
  ALBUMIN: 4.07 G/DL
  ALKALINE PHOSPHATASE: 310.67 u/L
  ASPARTATE AMINOTRANSFERASE: 85.33 u/L
  BLOOD UREA NITROGEN: 14 mg/dL
  CARBON DIOXIDE: 29.33 mmol/L
  CHLORIDE: 103 MEQ/L
  CHOLESTEROL: 68.67 mg/dL
  CREATINE PHOSPHOKINASE: 229.33 u/L
  CREATININE: 0.12 mg/dL
  GLUCOSE: 170.33 mg/dL
  LACTATE DEHYDROGENASE: 76.33 u/L
  LIPASE: 10 u/L
  PHOSPHORUS: 9.87 mg/dL
  POTASSIUM: 5.16 MEQ/L
  SODIUM: 146.93 MEQ/L
  TOTAL BILIRUBIN: 0.13 mg/dL
  TOTAL PROTEIN: 5.67 G/DL
  URIC ACID: 0.77 mg/dL
